Source: publication PMC10553834, “Differentiating the roles of Mycobacterium tuberculosis substrate binding proteins, FecB and FecB2, in iron uptake” (PLOS Pathogens, 2023)
“Also recorded” adds a separate entry of the source. Like-named read-outs stand apart in the source and are kept apart here.

Assays:
Mtb FecB (Rv3044) = Mtb FecB (Rv3044) (Mycobacterium tuberculosis, UniProt O53291); experiment: biochemical; type: binding
Mtb FecB2 (Rv0265c) = Mtb FecB2 (Rv0265c) (Mycobacterium tuberculosis, UniProt L7N6B2); type: binding; settings: FecB2-His (with His tag); 100 nM protein, 50 mM Tris-HCl pH 7.4, 150 mM NaCl, emission 335 nm
Sequence of Mtb FecB2 (Rv0265c) (L7N6B2 39-330 limits assumed): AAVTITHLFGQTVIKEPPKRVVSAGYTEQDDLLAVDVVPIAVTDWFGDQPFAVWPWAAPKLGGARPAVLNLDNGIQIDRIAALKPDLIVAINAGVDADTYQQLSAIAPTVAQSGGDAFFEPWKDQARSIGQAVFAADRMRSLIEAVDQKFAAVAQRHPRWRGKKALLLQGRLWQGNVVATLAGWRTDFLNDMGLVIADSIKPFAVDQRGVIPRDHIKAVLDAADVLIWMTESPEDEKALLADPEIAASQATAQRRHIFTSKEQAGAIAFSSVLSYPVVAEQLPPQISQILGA

Sequence of Mtb FecB (Rv3044) (O53291 entry or part of it): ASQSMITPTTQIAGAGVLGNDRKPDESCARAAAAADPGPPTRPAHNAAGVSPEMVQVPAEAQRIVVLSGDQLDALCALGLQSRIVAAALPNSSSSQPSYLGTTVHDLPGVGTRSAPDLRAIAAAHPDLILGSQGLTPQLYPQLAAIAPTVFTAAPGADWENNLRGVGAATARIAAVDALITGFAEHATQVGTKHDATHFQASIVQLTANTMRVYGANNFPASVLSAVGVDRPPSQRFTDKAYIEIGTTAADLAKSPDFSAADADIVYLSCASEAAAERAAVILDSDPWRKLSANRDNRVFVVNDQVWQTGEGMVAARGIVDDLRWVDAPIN

**Q.** For `O=C(N[C@H]1COC(=O)[C@@H](NC(=O)c2cccc(O)c2O)COC(=O)[C@@H](NC(=O)c2cccc(O)c2O)COC1=O)c1cccc(O)c1O` [ferric-enterobactin], which “Fold weaker affinity to FecB compared to Fe-cMB” value (“Fold weaker affinity to FecB” below) (Mtb FecB (Rv3044)) is on record?
**A.** at least 40 fold

**Q.** What about the Kd (Mtb FecB (Rv3044)) of the same molecule?
**A.** 26100 nM

**Q.** carboxymycobactin [apo-cMB] was tested. Which “Fold weaker affinity to FecB” value (Mtb FecB (Rv3044)) did it give?
**A.** ~4 fold

**Q.** What about the Kd (Mtb FecB (Rv3044)) of the same molecule?
**A.** 2900 ± 100 nM

**Q.** How did the Kd (Mtb FecB (Rv3044)) turn out when ferric-carboxymycobactin [Fe-cMB] was run?
**A.** 550 nM

**Q.** And the Kd (Mtb FecB (Rv3044); FecB without His tag (tagless), 100 nM protein, 50 mM Tris-HCl pH 7.4, 150 mM NaCl, emission 335 nm)?
**A.** 680 nM

**Q.** And the Kd (Mtb FecB (Rv3044); FecB-His (with His tag, native), 100 nM protein, 50 mM Tris-HCl pH 7.4, 150 mM NaCl, emission 335 nm)?
**A.** 630 ± 120 nM

**Q.** And the Kd (Mtb FecB2 (Rv0265c))?
**A.** could not be determined; also recorded: too weak to be determined

**Q.** With ferric-mycobactin J [Fe-MBJ] as the molecule, how does the “Fold weaker affinity to FecB” value (Mtb FecB (Rv3044)) read?
**A.** ~20 fold

**Q.** What about the Kd (Mtb FecB (Rv3044)) of the same molecule?
**A.** ~11000 nM

**Q.** And the Kd (Mtb FecB (Rv3044); listed as Fe-mycobactin J)?
**A.** 11300 ± 100 nM

**Q.** What does the source list for ferric-pyoverdines?
**A.** Fold weaker affinity to FecB compared to Fe-cMB (Mtb FecB (Rv3044)): at least 40 fold; Kd (Mtb FecB (Rv3044)): > 45000 nM
